A short description of this data set: 4-day repeat dose tolerability assessment in dogs. Conditions: beagle, dog.

Structures are written as SMILES.

For the molecule `CCOC(=O)N1CCC[C@H](N2CCC(C(=O)NC3(C)CCC3)CC2)CC1` [HTL9936, ethyl (S)-4-(4-((1-methylcyclobutyl)carbamoyl)piperidin-1-yl)azepane-1-carboxylate], the Cmax (in general, the maximum level reached in the sampled fluid or tissue) at 4 day (plasma) was greater than 32000 ng/mL. In addition, the concentration at 4 day (plasma (unbound)) stood at 60 µM.

(Values after paper PMC7616177, “From structure to clinic: Design of a muscarinic M1 receptor agonist with the potential to treat Alzheimer’s disease” (Cell, 2021).)
